Reference: ChEMBL document CHEMBL4425185, “Efforts towards the optimization of a bi-aryl class of potent IRAK4 inhibitors” (Bioorg Med Chem Lett, 2016)

Legend:
[1] = target: T1, Interleukin-1 receptor-associated kinase 4 (Homo sapiens, UniProt Q9NWZ3); test: Inhibition of human recombinant N-terminal GST-tagged full-length IRAK4 expressed in baculovirus infected Sf9 insect cells using 5FAM-RKRQGSVRRRVH-COOH as substrate in presence of ATP by IMAP fluorescence polarization assay
T1 sequence (Q9NWZ3 whole entry): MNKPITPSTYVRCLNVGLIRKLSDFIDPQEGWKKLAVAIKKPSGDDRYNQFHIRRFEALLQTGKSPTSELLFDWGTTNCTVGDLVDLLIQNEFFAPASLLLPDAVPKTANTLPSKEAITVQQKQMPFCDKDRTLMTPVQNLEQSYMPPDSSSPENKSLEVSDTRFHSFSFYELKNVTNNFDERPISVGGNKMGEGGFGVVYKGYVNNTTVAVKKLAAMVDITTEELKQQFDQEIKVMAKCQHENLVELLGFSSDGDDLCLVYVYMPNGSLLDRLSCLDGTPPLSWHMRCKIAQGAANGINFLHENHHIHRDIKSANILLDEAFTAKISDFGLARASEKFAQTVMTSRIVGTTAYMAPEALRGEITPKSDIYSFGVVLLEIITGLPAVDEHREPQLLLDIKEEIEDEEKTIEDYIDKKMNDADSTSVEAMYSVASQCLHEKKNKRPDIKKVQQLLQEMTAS

[2] = target: T1, Interleukin-1 receptor-associated kinase 4; test: Inhibition of […] IRAK4 in human THP1-XBlue cells assessed as decrease in NF-kappaB level preincubated for 1 hr followed by stimulation with LPS for 4 to 5 hrs measured after 30 mins by spectrophotometric analysis; assay type: cell-based
[3] = target: T2, Interleukin-1 receptor-associated kinase 4 (Homo sapiens) (UniProt Q9NWZ3); test: Ratio of IC50 for IRAK4 inhibition in human THP1-XBlue cells to IC50 for inhibition of human IRAK4; assay type: cell-based
T2 sequence (whole entry): T1 sequence (Q9NWZ3 whole entry)

[4] = Clearance in rat; assay type: ADME; details: in vivo
[5] = target: Voltage-gated inwardly rectifying potassium channel KCNH2 (Homo sapiens, UniProt Q12809); test: Inhibition of MK499 binding to human ERG
Voltage-gated inwardly rectifying potassium channel KCNH2, sequence (Q12809 whole entry): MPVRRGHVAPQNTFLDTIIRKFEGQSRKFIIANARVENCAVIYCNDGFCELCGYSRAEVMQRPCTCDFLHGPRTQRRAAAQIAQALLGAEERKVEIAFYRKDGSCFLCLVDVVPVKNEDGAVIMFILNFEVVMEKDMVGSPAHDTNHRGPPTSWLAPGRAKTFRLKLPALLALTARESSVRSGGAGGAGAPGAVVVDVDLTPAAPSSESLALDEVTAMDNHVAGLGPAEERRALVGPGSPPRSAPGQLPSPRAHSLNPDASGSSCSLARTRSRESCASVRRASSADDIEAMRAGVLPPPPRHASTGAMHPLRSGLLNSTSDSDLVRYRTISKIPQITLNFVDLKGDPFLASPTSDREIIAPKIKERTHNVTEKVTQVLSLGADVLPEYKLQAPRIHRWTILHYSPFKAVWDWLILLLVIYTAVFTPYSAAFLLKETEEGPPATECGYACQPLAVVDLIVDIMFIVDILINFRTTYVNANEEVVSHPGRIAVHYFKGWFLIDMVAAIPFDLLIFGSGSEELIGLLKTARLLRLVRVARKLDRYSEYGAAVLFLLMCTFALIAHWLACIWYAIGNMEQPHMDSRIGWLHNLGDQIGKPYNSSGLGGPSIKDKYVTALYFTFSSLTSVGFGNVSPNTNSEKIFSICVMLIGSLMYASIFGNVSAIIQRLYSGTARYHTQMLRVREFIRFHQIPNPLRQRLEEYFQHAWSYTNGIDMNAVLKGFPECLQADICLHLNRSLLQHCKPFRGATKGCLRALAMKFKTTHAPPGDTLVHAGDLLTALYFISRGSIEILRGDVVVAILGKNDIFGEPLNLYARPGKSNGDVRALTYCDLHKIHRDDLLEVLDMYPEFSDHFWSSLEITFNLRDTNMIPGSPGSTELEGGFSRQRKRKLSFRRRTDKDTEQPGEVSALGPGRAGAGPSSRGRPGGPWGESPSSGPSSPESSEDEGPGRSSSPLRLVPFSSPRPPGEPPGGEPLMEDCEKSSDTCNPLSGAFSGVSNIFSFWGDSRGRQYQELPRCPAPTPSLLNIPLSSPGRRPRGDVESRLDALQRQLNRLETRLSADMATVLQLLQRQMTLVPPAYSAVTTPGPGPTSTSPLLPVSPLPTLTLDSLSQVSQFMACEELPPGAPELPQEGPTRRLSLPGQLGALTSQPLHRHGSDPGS

[6] = Clearance in rat at 0.15 mg/kg, iv; assay type: ADME, organism-based; details: in vivo
[7] = Apparent permeability in dog MDCK2-MDR1 cells; assay type: ADME, cell-based, Canis lupus familiaris; details: MDCK-MDR1
MDR1 = test: Efflux ratio of permeability in dog MDCK2-MDR1 cells; assay type: ADME, cell-based, Canis lupus familiaris; details: MDCK-MDR1
Cytochrome P450 [8] = test: Induction of CYP450 (unknown origin); assay type: ADME; details: human
Cytochrome P450 [9] = test: Inhibition of CYP450 (unknown origin); assay type: ADME, protein assay; details: human
Homo sapiens [10] = organism: Homo sapiens; test: Selectivity for human IRAK4 over GST-tagged human MINK1
Homo sapiens [11] = organism: Homo sapiens; test: Selectivity for human IRAK4 over human LRRK2
[12] = Clearance in rat at 2 mg/kg, iv; assay type: ADME, organism-based; details: in vivo
[13] = Clearance in rat at 1.45 mg/kg, iv; assay type: ADME, organism-based; details: in vivo

SMILES | IC50 [1] [nM] | IC50 [2] [nM] | Ratio IC50 [3] | clearance [4] [mL/min/kg] | IC50 [5] [nM] | other results
Cn1cc(NC(=O)c2cc(-c3ccnc(NCC4CC4)c3)ccn2)c(C(N)=O)n1 | > 5000 |  |  |  |  | 
CC(C)CNC(=O)c1nn(C)cc1NC(=O)c1cccc(-c2ccnc(NCC3CC3)c2)n1 | > 5000 |  |  |  |  | 
Cn1cc(NC(=O)c2ccnc(-c3ccnc(NCC4CC4)c3)n2)c(C(N)=O)n1 |  |  |  | 43 | 1900 | 
Cn1cc(NC(=O)c2cccc(-c3ccnc(NCC4CC4)c3)n2)c(C(=O)NC2CCCC2)n1 | > 5000 |  |  |  |  | 
Cn1cc(NC(=O)c2cccc(-c3ccnc(NCC4CC4)c3)n2)c(C(=O)NCc2ncc[nH]2)n1 | 1610 |  |  |  |  | 
Cn1cc(NC(=O)c2cnn3ccc(N4CCNCC4)nc23)c(C(N)=O)n1 | 38 | 150 | < 3 | 3 | > 60000 | clearance [6]: 39 mL/min/kg; Papp [7]: 1.6 ×10⁻⁶ cm/s; efflux ratio (MDR1): 1; Activity (Cytochrome P450 [8]): Not Active; inhibition (INH) (Cytochrome P450 [9]): Not Active; Selectivity ratio (Homo sapiens [10]): < 10; Selectivity ratio (Homo sapiens [11]): < 10
Cn1cc(NC(=O)c2cccc(-c3ccnc(NCC4CC4)c3)n2)c(C(=O)N2CC(CN)C2)n1 |  | 477 | < 3 | 6 | 40000 | 
Cn1cc(NC(=O)c2cccc(-c3ccnc(NCC4CC4)c3)n2)c(C(=O)N2CCC(O)C2)n1 (stereo not given) | > 5000 |  |  |  |  | 
CN(C)CCCNC(=O)c1nn(C)cc1NC(=O)c1cccc(-c2ccnc(NCC3CC3)c2)n1 | 542 |  |  |  |  | 
CN(C)[C@H]1CN(C(=O)c2nn(C)cc2NC(=O)c2cccc(-c3ccnc(NCC4CC4)c3)n2)C[C@@H]1O |  | 533 | < 3 | 37 | > 60000 | Papp [7]: 11 ×10⁻⁶ cm/s
CN1CCCC(CNC(=O)c2nn(C)cc2NC(=O)c2cccc(-c3ccnc(NCC4CC4)c3)n2)C1 (stereo not given) |  |  |  | 21 | 12000 | 
Cn1cc(NC(=O)c2cccc(-c3ccnc(NCC4CC4)c3)n2)c(C(=O)NCc2ccncc2)n1 | > 5000 |  |  |  |  | 
Cn1cc(NC(=O)c2cccc(-c3ccnc(NCC4CC4)c3)n2)c(C(=O)NCc2ccccc2)n1 | > 5000 |  |  |  |  | 
Cn1cc(NC(=O)c2cncc(-c3ccnc(NCC4CC4)c3)c2)c(C(N)=O)n1 |  |  |  | 53 | 5200 | clearance [13]: 31 mL/min/kg

More lines, main results first:

IC50 [1] [nM] | IC50 [2] [nM] | Ratio IC50 [3] | clearance [4] [mL/min/kg] | SMILES | IC50 [5] [nM] | other results
106 | 202 | < 3 |  | Cn1cc(NC(=O)c2cccc(-c3cncc(Cl)c3)n2)c(C(N)=O)n1 |  | 
 |  |  | 54 | Cn1cc(NC(=O)c2cccc(-c3cccnc3)n2)c(C(N)=O)n1 |  | 
 | 294 | < 3 |  | Cn1cc(NC(=O)c2cccc(-c3ccnc(NCC(F)(F)F)c3)n2)c(C(N)=O)n1 |  | 
401 |  |  |  | Cn1cc(NC(=O)c2cccc(-c3ccsc3)n2)c(C(N)=O)n1 |  | 
 | 169 | < 3 | 17 | Cn1cc(NC(=O)c2cccc(-c3ccnc(NCC4CC4)c3)n2)c(C(N)=O)n1 | 2900 | clearance [12]: 33 mL/min/kg; Papp [7]: 18 ×10⁻⁶ cm/s; efflux ratio (MDR1): 0.3; Activity (Cytochrome P450 [8]): Not Active; inhibition (INH) (Cytochrome P450 [9]): Not Active; Selectivity ratio (Homo sapiens [10]): < 10; Selectivity ratio (Homo sapiens [11]): < 10
36 | 138 | < 3 | 53 | Cn1cc(-c2cccc(C(=O)Nc3cn(C)nc3C(N)=O)n2)cn1 | > 60000 | clearance [6]: 53 mL/min/kg; Papp [7]: 29 ×10⁻⁶ cm/s; efflux ratio (MDR1): 0.5; Activity (Cytochrome P450 [8]): Not Active; inhibition (INH) (Cytochrome P450 [9]): Not Active; Selectivity ratio (Homo sapiens [10]): < 10; Selectivity ratio (Homo sapiens [11]): < 10
121 | 307 | < 3 | 30 | Cn1cc(NC(=O)c2cccc(-c3ccc(C4CC4)nc3)n2)c(C(N)=O)n1 | > 60000 | 
187 | 428 | < 3 | 25 | Cn1cc(NC(=O)c2cccc(-c3ccnc(NCC4CC4)c3)c2)c(C(N)=O)n1 | 6100 | clearance [13]: 32 mL/min/kg
 | 259 | < 3 | 24 | Cn1cc(NC(=O)c2cccc(-c3ccnc(N)c3)n2)c(C(N)=O)n1 | 25000 | clearance [12]: 69 mL/min/kg; Papp [7]: 23 ×10⁻⁶ cm/s
3650 |  |  |  | Cn1cc(NC(=O)c2cccc(-c3ccccc3)n2)c(C(N)=O)n1 |  | 
683 |  |  |  | Cn1cc(NC(=O)c2cccc(-c3cnccc3Cl)n2)c(C(N)=O)n1 |  | 
